Assays:
[1] = target: Mitogen-activated protein kinase 14 (Homo sapiens, UniProt Q16539); assay: Inhibition of p38 alpha Lys2 labeling site in human A-375 cells at 5 uM by KiNativ Profiling analysis relative to control; assay type: cell-based
[2] = target: Serine/threonine-protein kinase 38-like (Homo sapiens) (UniProt Q9Y2H1); assay: Inhibition of NDR2 Lys1 labeling site harbouring DTGHIYAMKILR in human A-375 cells at 5 uM by KiNativ Profiling analysis relative to control; assay type: cell-based
[3] = target: Casein kinase II subunit alpha (Homo sapiens) (UniProt P68400); assay: Inhibition of CSNK2A1 (unknown origin) at 1 uM by Ambit Kinomescan binding assay relative to control; values are per cent of control
[4] = target: Mitogen-activated protein kinase kinase kinase kinase 4 (Homo sapiens, UniProt O95819); assay: Inhibition of MAP4K4 (unknown origin) at 10 uM by Ambit Kinomescan binding assay relative to control
[5] = target: Interferon-induced, double-stranded RNA-activated protein kinase (Homo sapiens) (UniProt P19525); assay: Inhibition of PKR ACT labeling site in human Huh-7 cells at 10 uM by KiNativ Profiling analysis relative to control; assay type: cell-based
[6] = target: T1, Serine/threonine-protein kinase LATS1 (Homo sapiens) (UniProt O95835); assay: Inhibition of LATS1 Lys2 labeling site in human A-375 cells at 0.05 uM by KiNativ Profiling analysis relative to control; assay type: cell-based
T1 sequence (whole entry): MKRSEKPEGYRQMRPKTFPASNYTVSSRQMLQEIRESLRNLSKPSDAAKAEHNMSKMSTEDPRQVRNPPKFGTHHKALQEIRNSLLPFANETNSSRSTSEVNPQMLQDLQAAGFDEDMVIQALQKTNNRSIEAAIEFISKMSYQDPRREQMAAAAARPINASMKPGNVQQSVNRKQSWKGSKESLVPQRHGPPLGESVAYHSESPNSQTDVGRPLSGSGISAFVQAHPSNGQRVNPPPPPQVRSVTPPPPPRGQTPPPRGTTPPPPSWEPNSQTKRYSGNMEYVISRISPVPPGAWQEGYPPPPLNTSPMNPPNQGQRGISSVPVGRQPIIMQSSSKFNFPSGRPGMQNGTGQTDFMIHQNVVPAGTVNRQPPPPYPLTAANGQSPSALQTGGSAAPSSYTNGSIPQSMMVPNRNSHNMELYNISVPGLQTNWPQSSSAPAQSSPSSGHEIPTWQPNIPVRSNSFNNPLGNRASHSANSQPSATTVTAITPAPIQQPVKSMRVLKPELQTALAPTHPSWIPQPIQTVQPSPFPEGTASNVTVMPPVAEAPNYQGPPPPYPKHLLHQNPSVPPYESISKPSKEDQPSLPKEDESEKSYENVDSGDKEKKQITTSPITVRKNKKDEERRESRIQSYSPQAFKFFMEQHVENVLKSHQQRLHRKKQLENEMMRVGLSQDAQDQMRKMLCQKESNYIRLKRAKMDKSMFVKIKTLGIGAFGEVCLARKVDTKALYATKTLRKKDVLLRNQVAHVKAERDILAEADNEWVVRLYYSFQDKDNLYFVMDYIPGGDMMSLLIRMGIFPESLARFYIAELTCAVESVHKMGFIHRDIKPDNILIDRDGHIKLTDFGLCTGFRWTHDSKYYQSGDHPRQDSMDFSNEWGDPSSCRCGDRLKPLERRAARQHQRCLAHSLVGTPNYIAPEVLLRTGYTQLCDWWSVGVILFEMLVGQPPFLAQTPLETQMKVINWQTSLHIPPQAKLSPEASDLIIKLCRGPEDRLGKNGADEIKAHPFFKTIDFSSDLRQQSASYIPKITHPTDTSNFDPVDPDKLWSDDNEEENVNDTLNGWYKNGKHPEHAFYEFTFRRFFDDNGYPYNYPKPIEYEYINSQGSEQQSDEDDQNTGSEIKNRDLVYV

[7] = target: Cyclin-dependent kinase 1 (Homo sapiens) (UniProt P06493); assay: Inhibition of CDC2 K2 labeling site harbouring DLKPQNLLIDDKGTIK in human Huh-7 cells at 10 uM by KiNativ Profiling analysis relative to control; assay type: cell-based
[8] = target: T2, Mitogen-activated protein kinase kinase kinase 7 (Homo sapiens) (UniProt O43318); assay: Inhibition of TAK1 Lys2 labeling site in human A-375 cells at 5 uM by KiNativ Profiling analysis relative to control; assay type: cell-based
T2 sequence (whole entry): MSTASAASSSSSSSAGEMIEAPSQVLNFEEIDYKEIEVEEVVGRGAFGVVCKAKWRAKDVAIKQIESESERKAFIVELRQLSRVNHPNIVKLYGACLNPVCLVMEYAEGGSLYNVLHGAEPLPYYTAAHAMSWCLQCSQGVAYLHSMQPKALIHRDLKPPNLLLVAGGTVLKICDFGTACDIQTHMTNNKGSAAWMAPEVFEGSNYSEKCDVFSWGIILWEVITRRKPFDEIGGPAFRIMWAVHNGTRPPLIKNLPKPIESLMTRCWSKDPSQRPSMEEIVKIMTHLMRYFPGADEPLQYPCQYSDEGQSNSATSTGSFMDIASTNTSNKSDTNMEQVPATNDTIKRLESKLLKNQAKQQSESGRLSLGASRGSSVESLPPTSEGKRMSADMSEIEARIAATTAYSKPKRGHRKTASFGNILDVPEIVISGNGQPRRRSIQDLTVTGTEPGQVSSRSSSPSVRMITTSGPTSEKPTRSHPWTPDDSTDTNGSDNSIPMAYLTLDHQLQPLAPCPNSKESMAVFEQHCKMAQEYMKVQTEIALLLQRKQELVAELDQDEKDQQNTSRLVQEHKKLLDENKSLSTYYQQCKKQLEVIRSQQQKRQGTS

[9] = target: Ribosomal protein S6 kinase beta-2 (Homo sapiens) (UniProt Q9UBS0); assay: Inhibition of p70S6Kb Lys2 labeling site in human Huh-7 cell lysate at 1 uM by KiNativ Profiling analysis relative to control; assay type: subcellular
[10] = target: Cyclin-dependent kinase 17 (Homo sapiens) (UniProt Q00537); assay: Inhibition of PCTAIRE2 Lys1 labeling site in human Huh-7 cells at 1 uM by KiNativ Profiling analysis relative to control; assay type: cell-based
[11] = target: Epidermal growth factor receptor (Homo sapiens) (UniProt P00533); assay: Inhibition of EGFR ACT labeling site in human Huh-7 cell lysate at 1 uM by KiNativ Profiling analysis relative to control; assay type: subcellular
Sequence of Epidermal growth factor receptor (Homo sapiens) (P00533 whole entry): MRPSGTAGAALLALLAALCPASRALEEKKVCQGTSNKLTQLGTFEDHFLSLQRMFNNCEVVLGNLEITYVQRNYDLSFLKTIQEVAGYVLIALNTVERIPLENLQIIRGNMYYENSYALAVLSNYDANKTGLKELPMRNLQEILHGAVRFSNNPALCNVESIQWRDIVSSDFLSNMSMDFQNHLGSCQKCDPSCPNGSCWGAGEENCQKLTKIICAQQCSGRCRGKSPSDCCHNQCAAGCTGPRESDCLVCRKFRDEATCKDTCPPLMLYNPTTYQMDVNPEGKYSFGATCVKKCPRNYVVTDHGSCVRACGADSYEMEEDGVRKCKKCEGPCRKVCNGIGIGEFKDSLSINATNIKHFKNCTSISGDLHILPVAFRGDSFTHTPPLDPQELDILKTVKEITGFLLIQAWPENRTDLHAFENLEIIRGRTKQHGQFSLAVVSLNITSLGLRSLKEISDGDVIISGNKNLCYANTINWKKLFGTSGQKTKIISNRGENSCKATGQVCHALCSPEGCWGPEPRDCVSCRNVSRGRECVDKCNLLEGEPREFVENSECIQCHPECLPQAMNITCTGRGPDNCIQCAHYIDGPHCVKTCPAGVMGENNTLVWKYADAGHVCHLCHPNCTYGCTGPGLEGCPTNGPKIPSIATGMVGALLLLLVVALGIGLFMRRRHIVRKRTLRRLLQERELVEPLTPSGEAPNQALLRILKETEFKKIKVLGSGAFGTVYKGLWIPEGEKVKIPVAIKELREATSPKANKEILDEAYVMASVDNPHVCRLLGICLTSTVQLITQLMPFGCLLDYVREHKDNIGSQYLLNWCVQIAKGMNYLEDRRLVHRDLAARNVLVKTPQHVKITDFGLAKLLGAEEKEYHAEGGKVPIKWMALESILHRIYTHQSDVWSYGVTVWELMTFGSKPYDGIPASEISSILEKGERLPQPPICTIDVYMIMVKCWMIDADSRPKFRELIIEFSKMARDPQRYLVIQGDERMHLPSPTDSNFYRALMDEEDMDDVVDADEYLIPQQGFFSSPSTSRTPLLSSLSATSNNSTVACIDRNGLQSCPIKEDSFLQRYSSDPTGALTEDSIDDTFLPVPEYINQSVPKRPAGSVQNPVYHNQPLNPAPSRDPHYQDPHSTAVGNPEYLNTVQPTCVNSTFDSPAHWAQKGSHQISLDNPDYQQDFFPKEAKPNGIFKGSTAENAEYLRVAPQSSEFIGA

Sequence of Interferon-induced, double-stranded RNA-activated protein kinase (Homo sapiens) (P19525 whole entry): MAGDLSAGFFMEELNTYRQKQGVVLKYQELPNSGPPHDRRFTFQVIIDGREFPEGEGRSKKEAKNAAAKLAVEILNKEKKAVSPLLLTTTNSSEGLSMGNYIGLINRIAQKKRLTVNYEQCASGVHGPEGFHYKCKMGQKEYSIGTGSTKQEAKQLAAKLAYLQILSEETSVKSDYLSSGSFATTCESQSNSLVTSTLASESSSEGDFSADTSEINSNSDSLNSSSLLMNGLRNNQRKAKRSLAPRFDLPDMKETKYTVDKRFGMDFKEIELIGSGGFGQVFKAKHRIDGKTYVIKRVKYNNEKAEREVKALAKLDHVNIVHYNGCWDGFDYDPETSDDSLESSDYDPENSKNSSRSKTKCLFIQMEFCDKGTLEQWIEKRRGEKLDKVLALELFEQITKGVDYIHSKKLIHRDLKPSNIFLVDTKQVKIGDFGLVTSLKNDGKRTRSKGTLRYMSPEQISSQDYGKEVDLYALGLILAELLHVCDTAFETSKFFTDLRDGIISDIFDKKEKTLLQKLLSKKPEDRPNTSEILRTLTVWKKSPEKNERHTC
Sequence of Ribosomal protein S6 kinase beta-2 (Homo sapiens) (Q9UBS0 whole entry): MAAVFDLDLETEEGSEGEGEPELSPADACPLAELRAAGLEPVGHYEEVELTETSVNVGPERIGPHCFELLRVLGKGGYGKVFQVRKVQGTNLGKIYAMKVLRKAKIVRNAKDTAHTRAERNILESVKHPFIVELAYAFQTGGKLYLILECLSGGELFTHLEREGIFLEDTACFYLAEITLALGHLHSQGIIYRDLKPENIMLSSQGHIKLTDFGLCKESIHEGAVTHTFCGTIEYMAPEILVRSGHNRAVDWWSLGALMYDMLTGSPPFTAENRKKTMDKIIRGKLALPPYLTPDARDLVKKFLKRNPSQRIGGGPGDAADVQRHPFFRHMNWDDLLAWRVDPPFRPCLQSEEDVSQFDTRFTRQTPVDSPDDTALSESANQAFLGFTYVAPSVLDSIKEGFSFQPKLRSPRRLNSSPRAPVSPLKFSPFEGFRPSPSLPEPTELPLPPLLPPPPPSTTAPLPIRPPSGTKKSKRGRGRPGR
Sequence of Mitogen-activated protein kinase kinase kinase kinase 4 (O95819 2-1239 limits assumed): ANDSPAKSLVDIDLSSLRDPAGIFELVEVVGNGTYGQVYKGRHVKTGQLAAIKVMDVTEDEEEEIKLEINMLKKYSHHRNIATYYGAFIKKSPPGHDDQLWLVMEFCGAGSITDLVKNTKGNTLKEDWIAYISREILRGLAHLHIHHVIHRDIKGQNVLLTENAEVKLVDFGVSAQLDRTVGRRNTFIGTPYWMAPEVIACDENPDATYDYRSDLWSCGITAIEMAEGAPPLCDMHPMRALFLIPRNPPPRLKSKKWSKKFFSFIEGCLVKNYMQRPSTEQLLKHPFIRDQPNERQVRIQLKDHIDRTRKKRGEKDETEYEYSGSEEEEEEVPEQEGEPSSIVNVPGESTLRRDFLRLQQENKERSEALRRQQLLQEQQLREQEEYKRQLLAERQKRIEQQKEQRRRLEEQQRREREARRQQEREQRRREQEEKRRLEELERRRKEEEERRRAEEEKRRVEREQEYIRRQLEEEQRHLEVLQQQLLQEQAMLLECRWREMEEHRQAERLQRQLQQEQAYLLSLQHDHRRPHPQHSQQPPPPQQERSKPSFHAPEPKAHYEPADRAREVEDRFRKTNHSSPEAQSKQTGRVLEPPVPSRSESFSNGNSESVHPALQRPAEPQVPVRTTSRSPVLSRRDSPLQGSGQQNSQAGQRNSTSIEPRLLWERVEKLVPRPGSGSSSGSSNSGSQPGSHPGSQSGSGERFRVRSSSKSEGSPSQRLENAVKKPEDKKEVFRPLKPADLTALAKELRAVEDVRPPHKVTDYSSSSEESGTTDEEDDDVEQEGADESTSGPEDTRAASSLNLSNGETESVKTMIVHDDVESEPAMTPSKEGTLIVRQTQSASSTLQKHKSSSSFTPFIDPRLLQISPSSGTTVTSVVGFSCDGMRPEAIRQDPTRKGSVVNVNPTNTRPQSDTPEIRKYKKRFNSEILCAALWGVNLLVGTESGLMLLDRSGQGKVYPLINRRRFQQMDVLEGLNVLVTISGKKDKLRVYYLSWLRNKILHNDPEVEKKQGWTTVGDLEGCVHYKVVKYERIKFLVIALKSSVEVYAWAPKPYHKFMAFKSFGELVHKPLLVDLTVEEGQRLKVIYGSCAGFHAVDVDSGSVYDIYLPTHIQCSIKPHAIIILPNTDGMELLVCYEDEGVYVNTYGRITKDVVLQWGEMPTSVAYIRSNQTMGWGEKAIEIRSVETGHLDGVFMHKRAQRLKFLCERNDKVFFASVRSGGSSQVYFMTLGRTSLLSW
Sequence of Cyclin-dependent kinase 1 (Homo sapiens) (P06493 whole entry, looked up): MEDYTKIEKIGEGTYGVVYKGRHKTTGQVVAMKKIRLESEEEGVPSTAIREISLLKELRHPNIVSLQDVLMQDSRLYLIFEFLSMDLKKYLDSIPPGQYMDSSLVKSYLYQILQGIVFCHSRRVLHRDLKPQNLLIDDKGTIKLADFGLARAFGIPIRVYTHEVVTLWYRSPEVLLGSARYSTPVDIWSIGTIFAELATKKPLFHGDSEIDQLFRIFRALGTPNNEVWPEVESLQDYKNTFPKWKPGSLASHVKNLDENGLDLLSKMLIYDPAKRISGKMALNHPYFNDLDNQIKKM
Sequence of Casein kinase II subunit alpha (Homo sapiens) (P68400 whole entry, looked up): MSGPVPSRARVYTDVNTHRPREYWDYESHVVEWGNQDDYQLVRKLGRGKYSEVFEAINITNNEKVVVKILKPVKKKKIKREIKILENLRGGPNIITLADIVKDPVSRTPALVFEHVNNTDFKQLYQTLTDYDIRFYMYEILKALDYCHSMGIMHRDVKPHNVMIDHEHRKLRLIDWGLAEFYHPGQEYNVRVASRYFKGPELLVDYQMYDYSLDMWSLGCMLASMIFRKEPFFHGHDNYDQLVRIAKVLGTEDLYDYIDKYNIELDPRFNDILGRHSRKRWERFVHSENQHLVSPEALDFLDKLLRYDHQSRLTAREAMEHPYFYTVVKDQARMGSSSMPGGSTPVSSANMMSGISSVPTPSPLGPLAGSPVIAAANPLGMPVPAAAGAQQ
Sequence of Mitogen-activated protein kinase 14 (Q16539 whole entry): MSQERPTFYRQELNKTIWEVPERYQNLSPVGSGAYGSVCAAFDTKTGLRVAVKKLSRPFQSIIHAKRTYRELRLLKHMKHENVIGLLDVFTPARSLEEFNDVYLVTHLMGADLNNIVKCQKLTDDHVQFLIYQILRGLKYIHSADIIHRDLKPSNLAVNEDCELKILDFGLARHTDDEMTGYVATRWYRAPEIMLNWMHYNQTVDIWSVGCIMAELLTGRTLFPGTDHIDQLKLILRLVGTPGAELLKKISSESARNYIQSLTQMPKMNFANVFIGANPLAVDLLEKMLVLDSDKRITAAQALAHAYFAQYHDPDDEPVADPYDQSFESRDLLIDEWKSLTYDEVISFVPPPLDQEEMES
Sequence of Cyclin-dependent kinase 17 (Homo sapiens) (Q00537 whole entry, looked up): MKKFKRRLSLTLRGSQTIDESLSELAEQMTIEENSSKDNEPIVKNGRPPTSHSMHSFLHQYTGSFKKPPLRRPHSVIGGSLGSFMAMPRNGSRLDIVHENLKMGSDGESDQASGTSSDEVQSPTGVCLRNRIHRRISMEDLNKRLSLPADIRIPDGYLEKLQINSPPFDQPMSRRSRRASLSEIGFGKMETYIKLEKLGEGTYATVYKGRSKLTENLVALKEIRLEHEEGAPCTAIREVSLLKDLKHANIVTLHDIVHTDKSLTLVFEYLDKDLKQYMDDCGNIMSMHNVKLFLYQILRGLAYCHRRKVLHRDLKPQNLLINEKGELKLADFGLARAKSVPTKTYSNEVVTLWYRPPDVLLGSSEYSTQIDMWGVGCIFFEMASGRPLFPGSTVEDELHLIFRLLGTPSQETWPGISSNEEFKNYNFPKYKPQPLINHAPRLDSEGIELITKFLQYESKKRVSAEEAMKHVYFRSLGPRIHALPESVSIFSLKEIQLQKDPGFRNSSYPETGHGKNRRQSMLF

`CCN1CCN(Cc2ccc(NC(=O)c3ccc(C)c(/C=C/c4cnc5[nH]ccc5c4OC)c3)cc2C(F)(F)F)CC1` gave an inhibition [1] of 52.4%, an inhibition [2] of 20.7% and a residual activity [3] of 100%.
Work on `CCN1CCN(Cc2ccc(NC(=O)c3ccc(C)c(Oc4ccnc5[nH]ccc45)c3)cc2C(F)(F)F)CC1` yielded an inhibition [4] of 0%, an inhibition [5] of 40.8% and an inhibition [6] of 14.5%. The inhibition [7] was -1.7% and the inhibition [8] was > 95%.
`CNc1cc(Oc2cc(C(=O)Nc3cc(N4CCN(C)CC4)cc(C(F)(F)F)c3)ccc2C)ncn1` gave an inhibition [9] of -8.4%, an inhibition [10] of 12% and an inhibition [11] of -3.2%.
